Measured values from patent US9371521B2, “Substituted pyrazinedithiol reducing agents” (Wisconsin Alumni Research Foundation, priority 2014, dated 2016).
Values after ≈ are worked out from the molar mass of the structure shown. Values joined by “and” are separate entries in the source; they are usually repeats but may differ in a detail not shown here. Identical values can stand only once. Like-named read-outs stand apart in the source and are kept apart here.

How the values were obtained:
[1] = Determination of thiol pKa values (pH titration monitored by UV absorbance at 238 nm); format: physicochemical
Procedure: Thiol pKa values were determined using a Varian Cary 60 UV-Vis spectrophotometer. Kinetic studies on proteins were carried out using a Varian Cary 400 Bio UV-Vis spectrometer with a Cary temperature controller at the Biophysics Instrumentation Facility at Madison (BIF). All NMR spectra were acquired at ambient temperature with a Bruker DMX-400 Avance spectrometer and a Bruker Avance III 500ii with cyroprobe spectrometer at the National Magnetic Resonance Facility at Madison (NMRFAM), and were referenced to TMS or residual protic solvent.
The thiol pKa values are determined by following a procedure reported previously that exploits the elevated absorbance of the deprotonated thiolate at 238 nm.
For BMMP determination, in eq 1, CT is the total thiol concentration, εSH^SH is the extinction coefficient of the doubly protonated form of BMMP, εSH^S- is the extinction coefficient of the singly protonated form of BMMP, and εS-^S- is the extinction coefficient of the doubly deprotonated form of BMMP.
For comparison, the thiol pKa values for DMH were determined in a similar fashion.

[2] = Reduction potential from equilibrium reaction with oxidized DTT (HPLC, Nernst equation); format: physicochemical; conditions: for Disulfide E°′ (reduction potential of oxidized form) / Keq of equilibrium reaction with DTTox: 50 mM potassium phosphate buffer, pH 7.0, EDTA 2 mM, 24 h; for Disulfide E°′ (reduction potential of oxidized form): assuming −0.327 V for DTT, this work
[3] = target: T1, creatine kinase-Cys283-S-S-G (Oryctolagus cuniculus, UniProt P00563); conditions: literature [23]; cited from earlier work
T1 construct: creatine kinase (lyophilized powder from rabbit muscle); purchased Sigma-Aldrich (St. Louis, Mo.); host or cells: rabbit muscle (natural source)

[4] = target: T1, creatine kinase-Cys283-S-S-G; experiment: Reactivation of creatine kinase (reduction of mixed disulfide with glutathione); format: biochemical, rabbit; conditions: for kobs for reduction of creatine kinase-Cys283-S-S-G: 0.10 M imidazole-HCl buffer, pH 7.0, EDTA 2 mM
Procedure: (§1) Commercial reagents were used without further purification. Dithiothreitol (DTT) was from Research Products International (Mt. Prospect, Ill.). […].
[21, 23] Enzymatic activity (%) at particular time points was calculated by dividing the number of active units of enzyme by the possible number of units in solution, and was plotted in FIG. 2B. Values of kobs (Table 2) were determined using eq.

[5] = target: T2, papain-Cys25-S—S—CH3 (Carica papaya, UniProt P00784); experiment: Reactivation of papain (reduction of active-site mixed disulfide); format: biochemical; conditions: for kobs for reduction of papain-Cys25-S-S-CH3: 0.10 M imidazole-HCl buffer, pH 7.0, EDTA 2 mM
T2 construct: Papain (lyophilized powder from papaya latex); purchased Sigma-Aldrich (St. Louis, Mo.); host or cells: papaya latex (natural source)
T2 sequence (P00784 134-345): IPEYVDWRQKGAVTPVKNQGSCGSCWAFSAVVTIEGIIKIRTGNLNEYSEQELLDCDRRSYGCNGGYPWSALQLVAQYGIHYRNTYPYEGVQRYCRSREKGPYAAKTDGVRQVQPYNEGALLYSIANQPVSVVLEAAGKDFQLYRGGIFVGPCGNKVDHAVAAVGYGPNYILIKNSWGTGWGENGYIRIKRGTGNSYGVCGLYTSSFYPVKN
Procedure: as §1
Papain was inactivated by forming a mixed disulfide upon treatment of its active-site cysteine (Cys25) with S-methyl methanethiosulfonate following a procedure reported previously. A 1.25 mL solution of papain-Cys25-S—S—CH3 (4.4×10^−6 M) in a degassed 0.10 M imidazole-HCl buffer, pH 7.0, containing EDTA (2 mM) was placed in a 1.5-mL LoBind Eppendorf tube. At time t=0, 10 μL of a 1 mM stock solution of BMMP was added, and a timer was started. […] A unit of protein is defined as the amount of enzyme required to produce 4-nitroaniline at a rate of 1 μmol/min. The units of active papain at each time point were calculated by using an extinction coefficient for 4-nitroaniline of ε=8,800 M^−1cm^−1 at 410 nm. […] Y=enzymatic activity (%) at any time point was determined by dividing the number of active units of enzyme by the possible number of units in the solution, and plotted in FIG. 2A. To determine the value of the second-order rate constant (kobs) for the reducing agents, the second order rate equation (eq 4) was transformed into eq 5, which was fitted to the data with the program Prism 5.0.

[6] = Reduction kinetics on oxidized βME; format: physicochemical; conditions: for kobs for reduction of βMEox: 5 mM each
[7] = literature value; cited from earlier work
[8] = cited from earlier work
[9] = literature value [37]; cited from earlier work
[10] = Determination of BMMP solubility in buffered water (1H NMR); format: physicochemical; conditions: aqueous buffer, thermodynamic from solid; 50 mM sodium phosphate buffer, pH 7.0
Procedure: A 20 mM stock solution of 2-butyne-1,4-diol (an ^1H NMR standard) was prepared in 50 mM sodium phosphate buffer, pH 7.0. BMMP was added to a solution containing 1 mL of this buffer and 0.1 mL of D2O until the solution was saturated completely. The mixture was sonicated to ensure complete dissolution and filtered into an NMR tube, and its spectrum was acquired. The solubility of BMMP was determined to be (64±14) mM by integration of the ^1H NMR peak areas of the aryl CH and methylene CH2SH protons for BMMP and the CH2OH peak for 2-butyne-1,4-diol.

[11] = Thiol pKa (second value, in parentheses)
[12] = pH 5.0, 50 mM sodium acetate buffer
[13] = pH 7.0, 50 mM potassium phosphate buffer

T1 sequence (P00563 whole entry): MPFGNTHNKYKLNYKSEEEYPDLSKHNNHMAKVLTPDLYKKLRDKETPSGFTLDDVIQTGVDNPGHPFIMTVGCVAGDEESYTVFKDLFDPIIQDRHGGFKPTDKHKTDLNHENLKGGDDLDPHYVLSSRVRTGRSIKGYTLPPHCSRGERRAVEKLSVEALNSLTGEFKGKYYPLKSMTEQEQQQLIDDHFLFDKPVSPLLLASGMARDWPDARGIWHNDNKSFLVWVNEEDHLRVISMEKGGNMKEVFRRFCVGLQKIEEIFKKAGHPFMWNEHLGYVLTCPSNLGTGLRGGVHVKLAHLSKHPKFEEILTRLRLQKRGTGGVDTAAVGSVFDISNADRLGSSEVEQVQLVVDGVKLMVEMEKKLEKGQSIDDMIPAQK

CN(C(=O)CS)N(C)C(=O)CS [drawing 5]
Thiol pKa (first, lower value) [1]: 8.0 ± 0.2 | Thiol pKa (second value, in parentheses) [1]: 9.1 ± 0.1 | Disulfide E°′ (reduction potential of oxidized form) [2]: −0.262 ± 0.004 V^c

SCc1nccnc1CS [drawing 7]
pKa ([1]; Thiol pKa (first, lower value)): 7.6 ± 0.1 | pKa [1, 11]: 9 | Disulfide E°′ (reduction potential of oxidized form) [2]: −0.301 ± 0.003 V^c

N[C@H](CS)CCS [DTBA, dithiobutylamine, reference compound]
Rate of reduction of creatine kinase mixed disulfide compared with DTT [3]: comparable to that of DTT | kobs for reduction of creatine kinase-Cys283-S-S-G [4]: 70 ± 2 M⁻¹ s⁻¹ | kobs for reduction of papain-Cys25-S-S-CH3 [5]: 950 ± 51 M⁻¹ s⁻¹ | kobs for reduction of βMEox [6, 12]: 0.0051 ± 0.0004 M⁻¹ s⁻¹ | kobs for reduction of βMEox [6, 13]: 0.32 ± 0.02 M⁻¹ s⁻¹

O[C@H](CS)[C@H](O)CS [DTT, dithiothreitol, reference compound]
Disulfide E°′ (reduction potential of oxidized form) [7]: −0.327 V | Fraction in the reactive thiolate form ([8]; neutral pH): less than 1% | kobs for reduction of creatine kinase-Cys283-S-S-G [4]: 82 ± 3 M⁻¹ s⁻¹ | kobs for reduction of papain-Cys25-S-S-CH3 [5]: 87 ± 3 M⁻¹ s⁻¹ | kobs for reduction of βMEox [6, 12]: 0.0013 ± 0.0001 M⁻¹ s⁻¹ | kobs for reduction of βMEox [6, 13]: 0.090 ± 0.005 M⁻¹ s⁻¹

Cc1cnc(C)cn1 [2,5-dimethylpyrazine]
pKa of the conjugate acid [9]: 2.1

N[C@H](CS)CCS [drawing 6]
Disulfide E°′ (reduction potential of oxidized form) [7]: −0.317 V^d

SCc1nccnc1CS [BMMP, 2,3-bis(mercaptomethyl)pyrazine]
solubility [10]: 64 ± 14 mM (≈ 11 mg/mL) | Keq of equilibrium reaction with DTTox [2]: 0.137±0.036 | Disulfide E°′ (reduction potential of oxidized form) [2]: −0.301±0.003 V | Free energy by which equilibrium favors reduced BMMP and oxidized DTT ([2]; reduced BMMP + oxidized DTT vs oxidized BMMP + reduced DTT): -1.2 kcal/mol | kobs for reduction of creatine kinase-Cys283-S-S-G [4]: 476 ± 34 M⁻¹ s⁻¹ | kobs^BMMP/kobs^DTBA, reduction of creatine kinase Cys283-S—S-glutathione ([4]; pH 7.0): 6.8 and 7 | kobs^BMMP/kobs^DTT, reduction of creatine kinase Cys283-S—S-glutathione ([4]; pH 7.0): 5.8 and 6 | kobs for reduction of papain-Cys25-S-S-CH3 [5]: 1139 ± 62 M⁻¹ s⁻¹ | kobs^BMMP/kobs^DTT, reduction of papain Cys25-S—S—CH3 ([5]; pH 7.0): 13.1 and 13 | Observed rate of reduction of βMEox at pH 5.0 compared with DTT at pH 7.0 ([6]; BMMP pH 5.0 vs DTT pH 7.0): comparable | kobs^BMMP/kobs^DTBA, reduction of βMEox ([6]; pH 5.0): 3.6 and 4 | kobs^BMMP/kobs^DTT, reduction of βMEox ([6]; pH 5.0): 14.1 and 14 | kobs for reduction of βMEox [6, 12]: 0.0183 ± 0.0007 M⁻¹ s⁻¹ | kobs^BMMP/kobs^DMH, reduction of βMEox ([6]; pH 7.0): 1.8 | kobs^BMMP/kobs^DTBA, reduction of βMEox ([6]; pH 7.0): 3.2 and 3 | kobs^BMMP/kobs^DTT, reduction of βMEox ([6]; pH 7.0): 11.4 and 11 | kobs for reduction of βMEox [6, 13]: 1.02 ± 0.07 M⁻¹ s⁻¹

CN(C(=O)CS)N(C)C(=O)CS [DMH, N,N′-dimethyl-N,N′ bis(mercaptoacetyl)hydrazine, reference compound]
pKa ([1]; Thiol pKa (first, lower value)): 8 ± 0.2 | pKa [1, 11]: 9.1 ± 0.1 | Thiol pKa (first, lower value) ([8]; literature value): 7.6 | Thiol pKa (second value, in parentheses) ([8]; literature value): 8.9 | Keq of equilibrium reaction with DTTox [2]: 0.0065±0.0020 | Disulfide E°′ (reduction potential of oxidized form) [2]: −0.262±0.004 V and −0.262±0.003 V | Rate of reduction of βMEox compared with other dithiols ([6]; pH 7.0): faster than did DTT or DTBA but slower than did BMMP | kobs for reduction of βMEox [6, 13]: 0.56 ± 0.04 M⁻¹ s⁻¹

OC(CS)[C@H](O)CS (mixture of isomers)
Disulfide E°′ (reduction potential of oxidized form) [7]: −0.327 V^b
